# Data published in patent publication US10722484B2, “Methods of cancer treatment” (K-Gen, Inc., priority 2016, dated 2020).
# Like-named read-outs stand apart in the source and are kept apart here.
# Legend:
# [1] = test system: H441; experiment: Proliferation assay (CellTiter Glo); assay type: cell-based; conditions: 96 hours; for Top Inhibition %: % of top inhibition
# Description: (§1) The dose range for most compounds was 4.6 nM-30 μM. The dose ranges for some compounds were adjusted downward to 0.46 nM-3 μM or 0.08 nM-0.5 μM or 0.03 nM-0.2 μM. […] The results are shown in Tables 3-6 for pancreatic cancer, lung cancer, colon/gastric cancer, and leukemia.
# [2] = test system: Capan-1; experiment: Proliferation assay (CellTiter Glo); assay type: cell-based; conditions: 96 hours; for Top Inhibition %: % of top inhibition
# Description: as §1
# [3] = test system: H727; experiment: Proliferation assay (CellTiter Glo); assay type: cell-based; conditions: 96 hours; for Top Inhibition %: % of top inhibition
# Description: as §1
# [4] = test system: HCT116; experiment: Proliferation assay (CellTiter Glo); assay type: cell-based; conditions: 96 hours; for Top Inhibition %: % of top inhibition
# Description: as §1
# [5] = test system: KP-4; experiment: Proliferation assay (CellTiter Glo); assay type: cell-based; conditions: 96 hours; for Top Inhibition %: % of top inhibition
# Description: as §1
# [6] = test system: AGS; experiment: Proliferation assay (CellTiter Glo); assay type: cell-based; conditions: 96 hours; for Top Inhibition %: % of top inhibition
# Description: as §1
# [7] = test system: Pan2.03; experiment: Proliferation assay (CellTiter Glo); assay type: cell-based; conditions: 96 hours; for Top Inhibition %: % of top inhibition
# Description: as §1
# [8] = test system: Pan2.13; experiment: Proliferation assay (CellTiter Glo); assay type: cell-based; conditions: 96 hours; for Top Inhibition %: % of top inhibition
# Description: as §1
# [9] = test system: CCRF-CEM; experiment: Proliferation assay (CellTiter Glo); assay type: cell-based; conditions: 96 hours; for Top Inhibition %: % of top inhibition
# Description: as §1
# [10] = test system: H358; experiment: Proliferation assay (CellTiter Glo); assay type: cell-based; conditions: HE58, 96 hours; for Top Inhibition %: % of top inhibition
# Description: as §1
# [11] = test system: pancreatic, lung, colon and leukemia cancer cell lines; experiment: Proliferation assay, summary over the panel of cancer cell lines; assay type: cell-based; conditions: comparison with prostratin
# Description: PKC activator compounds were tested in a panel of K-RAS mutant pancreatic, lung, and colon cancer cell lines, as well as a number of leukemia cell lines having either mutant K-RAS or N-RAS.
# as §1
# [12] = test system: Mino (Mantle cell lymphoma); experiment: Combination viability/proliferation assays; conditions: Homo sapiens, MINO, read-out: inhibition on proliferation, alone
# Description: Briefly, cells at density of 1,000-10,000 cells/well in 96-well plates or 200-1600 cells/well in 384-well plates were seeded and incubated at 37° C. for 24 hours before addition of compounds. A series of 9 different concentrations of compound stocks (500×) were prepared by 3-fold serial dilutions in DMSO. […] After 96 hours of incubation, 35 μL or 50 μL of CellTiter Glo reagent (Promega) was added to each well and luminescence was measured after 10 minutes using EnVision (PerkinElmer). Luminescence from cells treated with DMSO alone was set as Max and % of inhibition was calculated as follows: Inhibition %=(Max-Sample value)/Max*100. Data were analyzed using XLfit software (ID Business Solutions Ltd.) or GraphPad software and IC50, relative IC50, and % of top inhibition were calculated.
# Various drugs or compounds (Table 10) were screened and assayed in 384-well plates as 9-point 3-fold dilution series alone and in combination with 2-3 doses of the specified PKC activator compounds (e.g., K101A, K101E, and K102). The top concentration for the tested PKC activator compound was set at roughly the IC50 when the same testing compound was used as a single agent assayed in the same cell line. The next dose was either 3-fold or 10-fold dilution from the top concentration.
# The PKC activating agents (e.g., K101A, K101E, and K102) in combination with other chemotherapeutic agents, including standard chemotherapies and certain chemotherapeutic agents targeting certain cell signaling pathways, were also examined on cancer cells other than lung cancer cells.
# [13] = test system: A549 lung cancer cell line; experiment: Combination viability/proliferation assays (384-well IC50 ratio, 96-well MacSynergy II); assay type: cell-based; conditions: PKC activator compounds (K101A, K101E, K102)
# [14] = Homo sapiens, NCI-H441, H441 (K-RAS: G12V), absolute EC50, read-out: Ab EC50
# [15] = Homo sapiens, NCI-H441, H441, relative EC50, read-out: Re EC50
# [16] = Homo sapiens, Capan-1 (K-RAS: G12V), absolute EC50, read-out: Ab EC50
# [17] = Homo sapiens, NCI-H727, H727 (K-RAS: G12V), absolute EC50, read-out: Ab EC50
# [18] = Homo sapiens, NCI-H727, H727, relative EC50, read-out: Re EC50
# [19] = Homo sapiens, HCT-116, HCT116 (K-RAS: G13D), absolute EC50, read-out: Ab EC50
# [20] = Homo sapiens, HCT-116, HCT116, relative EC50, read-out: Re EC50
# [21] = Homo sapiens, KP-4 (K-RAS: G12C), absolute EC50, read-out: Ab EC50
# [22] = Homo sapiens, AGS (gastric, K-RAS: G12D), absolute EC50, read-out: Ab EC50
# [23] = Homo sapiens, AGS, relative EC50, read-out: Re EC50
# [24] = Pan2.03 (K-RAS: G12D), absolute EC50, read-out: Ab EC50
# [25] = Pan2.03, relative EC50, read-out: Re EC50
# [26] = Pan2.13 (K-RAS: Q61H), absolute EC50, read-out: Ab EC50
# [27] = Pan2.13, relative EC50, read-out: Re EC50
# [28] = Homo sapiens, CCRF-CEM (K-RAS: G12D), absolute EC50, read-out: Ab EC50
# [29] = Homo sapiens, CCRF-CEM, relative EC50, read-out: Re EC50
# [30] = Homo sapiens, NCI-H358, absolute EC50, read-out: Ab EC50
# [31] = Homo sapiens, NCI-H358, relative EC50, read-out: Re EC50
# [32] = Homo sapiens, Capan-1, relative EC50, read-out: Re EC50
# [33] = Homo sapiens, KP-4, relative EC50, read-out: Re EC50
Compound,Top Inhibition % ([1]; H441) [%],"EC50 [1, 14] [nM]","EC50 [1, 15] [nM]",Top Inhibition % ([2]; Capan-1) [%],"EC50 [2, 16] [nM]",Top Inhibition % ([3]; H727) [%],"EC50 [3, 17] [nM]","EC50 [3, 18] [nM]",Top Inhibition % ([4]; HCT116) [%],"EC50 [4, 19] [nM]",Top Inhibition % ([5]; KP-4) [%],Top Inhibition % ([6]; AGS) [%],"EC50 [7, 24] [nM]",Top Inhibition % ([7]; Pan2.03) [%],"EC50 [7, 25] [nM]","EC50 [8, 26] [nM]",Top Inhibition % ([8]; Pan2.13) [%],"EC50 [8, 27] [nM]",Top Inhibition % ([9]; CCRF-CEM) [%],Top Inhibition % [10] [%],further results
"CCCCCCCCCCCCCC(=O)O[C@@H]1[C@@H](C)[C@@]2(O)[C@@H](C=C(CO)C[C@]3(O)C(=O)C(C)=C[C@@H]23)[C@@H]2C(C)(C)[C@]12OC(C)=O [Compound K103, 12-O-Tetradecanoylphorbol-13-acetate]",46.7,> 500,0.75,51.0,14,57.4,2.2,0.37,21.4,> 500,70.3,47.2,> 500,32.2,0.9,> 500,41.9,0.66,37.7,59.6,"EC50 [4, 20]: 1.2 nM; EC50 [5, 21]: < 4.6 nM; EC50 [6, 22]: > 500 nM; EC50 [6, 23]: 1.1 nM; EC50 [9, 28]: > 500 nM; EC50 [9, 29]: 0.24 nM; EC50 [10, 30]: 2.2 nM; EC50 [10, 31]: 0.4 nM; potency in proliferation inhibition relative to prostratin [11]: more potent"
"CC(=O)O[C@@]12C[C@@H](C)[C@@]3(O)[C@@H](C=C(CO)C[C@]4(O)C(=O)C(C)=C[C@@H]34)[C@@H]1C2(C)C [Compound K101A, 12-deoxyphorbol 13-acetate]",42.1,> 30000,320,37.1,> 30000,48.3,> 30000,190,17.4,> 30000,63.3,21.7,> 30000,27.0,120,> 30000,43.4,17,35.9,56.4,"EC50 [2, 32]: 310 nM; EC50 [5, 21]: 400 nM; EC50 [5, 33]: 190 nM; EC50 [6, 22]: > 30000 nM; EC50 [6, 23]: 490 nM; EC50 [9, 28]: > 30000 nM; EC50 [9, 29]: 51 nM; EC50 [10, 30]: 4900 nM; EC50 [10, 31]: 160 nM; inhibition at 0.1 µM [12]: < 10%"
CC(=O)OCC1=CC2C3C(C)(C)C3(OC(C)=O)CC(C)C2(O)C2C=C(C)C(=O)C2(O)C1 (centres unmarked) [Compound K101E],49.1,–,–,44.6,–,49.1,–,–,27.4,–,69.1,25.9,> 30000,36.5,1920,> 200,49.8,44,34.3,47.9,"EC50 ([1]; H441 (K-RAS: G12V), absolute EC50, read-out: Ab EC50): > 30000 nM; EC50 ([1]; H441, relative EC50, read-out: Re EC50): 2610 nM; EC50 ([2]; Capan-1 (K-RAS: G12V), absolute EC50, read-out: Ab EC50): > 30000 nM; EC50 ([2]; Capan-1, relative EC50, read-out: Re EC50): 830 nM; EC50 ([3]; H727 (K-RAS: G12V), absolute EC50, read-out: Ab EC50): > 30000 nM; EC50 ([3]; H727, relative EC50, read-out: Re EC50): 620 nM; EC50 ([4]; HCT116 (K-RAS: G13D), absolute EC50, read-out: Ab EC50): > 30000 nM; EC50 ([4]; HCT116, relative EC50, read-out: Re EC50): 6640 nM; EC50 ([5]; KP-4 (K-RAS: G12C), absolute EC50, read-out: Ab EC50): 1280 nM; EC50 ([5]; KP-4, relative EC50, read-out: Re EC50): 680 nM; EC50 ([6]; AGS (gastric, K-RAS: G12D), absolute EC50, read-out: Ab EC50): > 30000 nM; EC50 ([6]; AGS, relative EC50, read-out: Re EC50): 4380 nM; EC50 ([9]; CCRF-CEM (K-RAS: G12D), absolute EC50, read-out: Ab EC50): > 30000 nM; EC50 ([9]; CCRF-CEM, relative EC50, read-out: Re EC50): 270 nM; EC50 ([10]; absolute EC50, read-out: Ab EC50): > 30000 nM; EC50 ([10]; relative EC50, read-out: Re EC50): 1250 nM"
CC(=O)O[C@H]1C(=O)[C@@]2(C)[C@H]([C@H](OC(=O)c3ccccc3)[C@]3(O)C[C@H](OC(=O)[C@H](O)[C@@H](NC(=O)c4ccccc4)c4ccccc4)C(C)=C1C3(C)C)[C@]1(OC(C)=O)CO[C@@H]1C[C@@H]2O [Paclitaxel],51.9,35.8,3.5,73.5,11,49.0,> 500,2.3,94.8,2.2,96.2,87.7,3.3,64.7,1.8,65,53.2,2.7,97.8,89.2,"EC50 [2, 32]: 7.2 nM; EC50 [4, 20]: 2.1 nM; EC50 [5, 21]: 1.9 nM; EC50 [5, 33]: 1.8 nM; EC50 [6, 22]: 4.7 nM; EC50 [6, 23]: 3.9 nM; EC50 [9, 28]: 4 nM; EC50 [9, 29]: 3.9 nM; EC50 [10, 30]: 2.4 nM; EC50 [10, 31]: 1.8 nM; effect in combination with the PKC activator compounds in inhibiting the growth of A549 cells [13]: insignificant synergism or antagonism"
"C/C=C(/C)C(=O)O[C@H]1C(C)=C[C@]23C(=O)[C@@H](C=C(CO)[C@@H](O)[C@]12O)[C@H]1[C@@H](C[C@H]3C)C1(C)C [Compound K102, ingenol-3-angelate]",50.6,1010,2.4,46.9,> 30000,61.0,22,4.3,23.2,> 3000,62.2,42.9,> 3000,36.9,3.3,3.9,51.7,1.2,30.3,57.5,"EC50 [2, 32]: 13 nM; EC50 [4, 20]: 21 nM; EC50 [5, 21]: 15 nM; EC50 [5, 33]: 15 nM; EC50 [6, 22]: > 3000 nM; EC50 [6, 23]: 12 nM; EC50 [9, 28]: > 3000 nM; EC50 [9, 29]: 0.9 nM; EC50 [10, 30]: 97 nM; EC50 [10, 31]: 4.5 nM; inhibition at 0.001 µM [12]: < 10%; potency in proliferation inhibition relative to prostratin [11]: more potent"
